Test system: Human neuroblastoma SK-N-SH cells
Experiment: Cytoprotection in human neuroblastoma SK-N-SH cells against a PI-3-kinase inhibitor, LY-294002
Assay type: cell-based
Conditions: test compound 1.0 μM with LY-294002 30 μM; survival by Alamarblue reduction one day after initiation; (A−B)/(C−B)×100
Description: Cytoprotection in human neuroblastoma SK-N-SH cells against a PI-3-kinase inhibitor, LY-294002
Human neuroblastoma SK-N-SH cells were purchased from American Type Cell Culture (ATCC). DMEM/F-12 culture medium and potassium/magnesium-free phosphate buffer saline (PBS(−)) were purchased from Nikken Biomedical Co., Ltd., N2 additives and EDTA solution from GIBCO BRL Company, fetal bovine serum (FCS) and a mixed solution of penicillin (5000 U/ml) and streptomycin (5 mg/ml) from BioWhittaker Inc., Alamarblue™ reagent from Wako Pure Chemical Industries Ltd., culture flasks from Falcon Company, collagen-coated 96-well multi-plates from Iwaki Glass Co., Ltd., and LY-294002 from Alexis Biochemicals, respectively. As for other reagents, commercially available guaranteed reagents were used.
By using DMEM/F-12 culture medium which contains 5% FCS, 0.5% N2, 10 mM HEPES, and a 1% mixed solution of penicillin (5000 U/ml) and streptomycin (5 mg/ml), SK-N-SH cells were subcultured in a carbon dioxide incubator under a mixed gas atmosphere consisting of 10% carbon dioxide and 90% air. After being cultivated to a sub-confluent stage, the cells were detached by a PBS(−) solution containing 2.5 mM EDTA and seeded onto collagen-coated 96-well multi-plates in the proportion of 1.0×10^4 cells/100 μl/well. After cultivation for 24 hours, the cells thus prepared were used for the cytoprotection assay.
(§1) There was removed 80 μl of the culture medium of SK-N-SH cells that was cultivated as described above on 96-wells, collagen-coated, multi-plates and thereto were added at the same time 40 μl each of LY-294002 of the final concentrations of 30 μM and each test compound the final concentrations of that was adjusted to be 1.0 μM, to initiate the cytotoxicity test. Hereupon, each test compound was used after adjusting the concentration to be 10 mM with dimethyl sulfoxide and LY-294002 was used after adjusting the concentration to be 100 mM with dimethyl sulfoxide, each of which was diluted prior to its use in the test.
The survival activity of nerve cells that were still living one day after initiation of the cytotoxicity test was determined by the activity of the cells to reduce the Alamarblue™ reagent as an index. There was removed 20 μl of the culture medium and 20 μl of Alamarblue™ reagent was added. The amount of Alamarblue™ reagent reduced by the cells over the period of 4 hours was calorimetrically determined (measurement wave length: 570 nm; reference wave length: 600 nm) By using a plate reader (WAKO SPECTRAMAX 250 Microplate Reader). Cytoprotection activity was calculated according to the following equation. Cytoprotection activity of each compound=(A−B)/(C−B)×100(%) • A: The survival activity of the group consisting of a test compound and LY-294002 added • B: The survival activity of the group consisting of LY-294002 added • C: The survival activity of the control group
The cytoprotection activity of each compound was obtained By using at least 4 wells for every dose of a test compound.
Cytoprotection in Human Neuroblastoma SK-N-SH Cells Against a PI-3-kinase Inhibitor, LY-294002
as §1, with “cytotoxicity assay.” for “cytotoxicity test.”
The survival activity of nerve cells that were still living one day after initiation of the cytotoxicity test was determined by the activity of the cells to reduce the Alamarblue™ reagent as an index. […]

SMILES	Cytoprotection Activity (%)
COc1cc2c(cc1OC)CN(c1c(C)c(C)c3c(c1C)C(c1ccc(C)cc1)C(C)(C)O3)C2 (stereo not shown) [Example 6a, 5,6-dimethoxy-2-[2,2,4,6,7-pentamethyl-3-(4-methylphenyl)-2,3-dihydro-1-benzofuran-5-yl]isoindoline]	28.2%
Cc1ccc(C2c3c(C)c(-n4cc5cc6c(cc5c4)OCO6)c(C)c(C)c3OC2(C)C)cc1 (stereo not shown) [Example 14a, 6-[2,2,4,6,7-pentamethyl-3-(4-methylphenyl)-2,3-dihydro-1-benzofuran-5-yl]-6H-[1,3]dioxolo[4,5-f]isoindole]	26.6%
Cc1c(C)c2c(c(C)c1NC(=O)c1ccc(Cl)cc1)C(c1ccc(C(C)C)cc1)C(C)(C)O2 (stereo not shown) [Example 20b, 4-Chloro-N-[3-(4-isopropylphenyl)-2,2,4,6,7-pentamethyl-2,3-dihydro-1-benzofuran-5-yl]benzamide]	12.6%
Cc1c(C)c2c(c(C)c1NC(=O)c1ccc3c(c1)OCO3)C(c1ccc(C(C)C)cc1)C(C)(C)O2 (stereo not shown) [Example 22b, N-[3-(4-Isopropylphenyl)-2,2,4,6,7-pentamethyl-2,3-dihydro-1-benzofuran-5-yl]-1,3-benzodioxol-5-carboxamide]	12.8%
Cc1c(C)c2c(c(C)c1NC(=O)c1cccs1)C(c1ccc(C(C)C)cc1)C(C)(C)O2 (stereo not shown) [Example 24b, N-[3-(4-Isopropylphenyl)-2,2,4,6,7-pentamethyl-2,3-dihydro-1-benzofuran-5-yl]-2-thiophenecarboxamide]	16.4%
COc1ccc(CNc2c(C)c(C)c3oc(C)c(-c4ccc(C(C)C)cc4)c3c2C)cc1 [Example 45b, 3-(4-isopropylphenyl)-N-(4-methoxybenzyl)-2,4,6,7-tetramethyl-1-benzofuran-5-amine]	20.6%
COc1ccc(C(=O)Nc2c(C)c(C)c3c(c2C)C(c2ccc(C(C)C)cc2)C2(CCN(C)CC2)O3)cc1 (stereo not shown) [Example 52b, N-[3-(4-Isopropylphenyl)-1′,4,6,7-tetramethylspiro[benzofuran-2(3H),4′-piperidine]-5-yl]-4-methoxybenzamide]	16.4%
